In patent publication US20210070748A1, “INHIBITORS OF BRUTONS TYROSINE KINASE” (Pharmacyclics LLC, priority 2015, published 2021) one finds IC50 data, which are given here for 22 compounds.

The target of assay [1] is T1, BTK-WT (Homo sapiens, UniProt Q06187).
T1 construct: purified from insect cells as a full-length construct containing an N-terminal 6X-His tag; His6 (N); made in house; host or cells: insect cells (baculovirus Sf21 in Method B)
Put plainly: Btk in vitro inhibitory activity (one of Method A TR-FRET, Method B electrophoretic mobility shift, Method C radiometric filter binding). It counts as biochemical. Conditions: D-compounds panel data; read-out: IC50 BTK-WT. For orientation: A gel shift assay detects complexes by their altered migration in electrophoresis.

Assay [2] concerns the target T2, TEC (Homo sapiens, UniProt P42680).
T2 sequence (P42680 1-631): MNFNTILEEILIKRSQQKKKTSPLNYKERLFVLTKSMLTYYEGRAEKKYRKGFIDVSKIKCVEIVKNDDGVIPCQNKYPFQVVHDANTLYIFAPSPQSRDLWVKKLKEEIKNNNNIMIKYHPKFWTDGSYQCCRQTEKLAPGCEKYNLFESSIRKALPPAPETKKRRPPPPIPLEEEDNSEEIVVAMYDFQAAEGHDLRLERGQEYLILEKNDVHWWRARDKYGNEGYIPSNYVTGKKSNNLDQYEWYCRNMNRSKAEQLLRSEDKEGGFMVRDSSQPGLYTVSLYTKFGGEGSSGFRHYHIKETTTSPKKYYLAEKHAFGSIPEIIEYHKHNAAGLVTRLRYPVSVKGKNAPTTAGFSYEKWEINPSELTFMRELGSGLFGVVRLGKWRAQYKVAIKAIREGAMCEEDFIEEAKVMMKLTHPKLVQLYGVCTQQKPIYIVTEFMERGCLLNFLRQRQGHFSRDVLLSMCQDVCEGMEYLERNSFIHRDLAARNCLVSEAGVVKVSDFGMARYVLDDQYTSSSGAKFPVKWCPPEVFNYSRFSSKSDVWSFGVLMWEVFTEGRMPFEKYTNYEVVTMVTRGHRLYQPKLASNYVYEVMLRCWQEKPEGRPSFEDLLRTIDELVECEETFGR
Nature of the assay: Inhibition of a panel of kinases, in vitro HotSpot kinase assay: TEC. It is filed as biochemical. Conditions: D-compounds panel data; 1 μM ATP. The protocol:
The degree of inhibition of a panel of kinases is determined using the in vitro HotSpot kinase assay (purified enzymes, ^33P-ATP, an appropriate substrate and 1 μM ATP).

T1 sequence (Q06187 whole entry): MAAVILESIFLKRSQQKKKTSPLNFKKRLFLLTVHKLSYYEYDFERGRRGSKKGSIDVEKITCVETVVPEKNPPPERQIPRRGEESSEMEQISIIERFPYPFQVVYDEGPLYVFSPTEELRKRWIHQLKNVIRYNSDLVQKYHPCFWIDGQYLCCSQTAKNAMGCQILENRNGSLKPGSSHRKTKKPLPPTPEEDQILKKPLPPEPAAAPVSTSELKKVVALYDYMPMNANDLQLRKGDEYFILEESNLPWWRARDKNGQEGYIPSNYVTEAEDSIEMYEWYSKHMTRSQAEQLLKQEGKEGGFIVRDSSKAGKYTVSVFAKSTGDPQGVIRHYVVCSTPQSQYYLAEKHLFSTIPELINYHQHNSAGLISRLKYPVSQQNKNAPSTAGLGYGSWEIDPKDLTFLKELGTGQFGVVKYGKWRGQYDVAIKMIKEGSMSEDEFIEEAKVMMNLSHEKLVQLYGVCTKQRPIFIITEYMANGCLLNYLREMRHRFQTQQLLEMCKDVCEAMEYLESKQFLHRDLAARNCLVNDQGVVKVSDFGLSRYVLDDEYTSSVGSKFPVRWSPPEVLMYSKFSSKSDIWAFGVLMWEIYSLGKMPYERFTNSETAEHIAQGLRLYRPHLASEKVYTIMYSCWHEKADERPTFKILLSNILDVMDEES

A word on the IC50: it is the concentration that gives 50% inhibition. With `C[C@@H]1[C@H](NC(=O)c2ccc(C(O)C(F)(F)F)cc2)CCCN1c1cnc(C(N)=O)c(Nc2cnn(C)c2)n1` (single isomer, unassigned) [Example D-250], the IC50 in assay [1] and in assay [2] was at most 0.01 µM in each case.

`Cc1cc2cc(C(=O)N[C@@H]3CCCN(c4cnc(C(N)=O)c(Nc5cnn(C)c5)n4)[C@@H]3C)ccc2o1` [Example D-246, 3-[(1-methyl-1H-pyrazol-4-yl)amino]-5-[(2R,3R)-2-methyl-3-(2-methyl-1-benzofuran-5-amido)piperidin-1-yl]pyrazine-2-carboxamide]: the IC50 in assay [1] and in assay [2] was at most 0.01 µM each time.

Turning to `C[C@@H]1[C@H](NC(=O)c2ccc(C3(CO)CC3)cc2)CCCN1c1cnc(C(N)=O)c(Nc2cnn(C)c2)n1` [Example D-260, 5-[(2R,3R)-3-{4-[1-(hydroxymethyl)cyclopropyl]benzamido}-2-methylpiperidin-1-yl]-3-[(1-methyl-1H-pyrazol-4-yl)amino]pyrazine-2-carboxamide], the half-maximal inhibitory concentration (IC50) in assay [1] and in assay [2] was at most 0.01 µM each time.

As to `C[C@@H]1[C@H](NC(=O)c2coc(C3CC3)n2)CCCN1c1cnc(C(N)=O)c(Nc2cnn(C)c2)n1` [Example D-257, 5-[(2R,3R)-3-(2-cyclopropyl-1,3-oxazole-4-amido)-2-methylpiperidin-1-yl]-3-[(1-methyl-1H-pyrazol-4-yl)amino]pyrazine-2-carboxamide], the IC50 in assay [1] and in assay [2] was at most 0.01 µM in each case.

With `C[C@@H]1[C@H](NC(=O)c2ccc(C3CC3)cc2)CCCN1c1cnc(C(N)=O)c(Nc2cnn(C3CCN(C(=O)C4(C)COC4)CC3)c2)n1` [Example D-289, 5-[(2R,3R)-3-(4-cyclopropylbenzamido)-2-methylpiperidin-1-yl]-3-({1-[1-(3-methyloxetane-3-carbonyl)piperidin-4-yl]-1H-pyrazol-4-yl}amino)pyrazine-2-carboxamide], the IC50 in assay [1] and in assay [2] was at most 0.01 µM each time.

As for `C[C@@H]1[C@H](NC(=O)c2cc(C(C)(C)C)on2)CCCN1c1cnc(C(N)=O)c(Nc2cnn(C)c2)n1` [Example D-247, 5-[(2R,3R)-3-(5-tert-butyl-1,2-oxazole-3-amido)-2-methylpiperidin-1-yl]-3-[(1-methyl-1H-pyrazol-4-yl)amino]pyrazine-2-carboxamide], the values for the IC50 in assay [1] and in assay [2] were at most 0.01 µM and 0.01 to 0.1 µM, respectively.

Turning to `C[C@@H]1[C@H](NC(=O)c2ccc(C3CC3)cc2)CCCN1c1cnc(C(N)=O)c(Nc2cnn(C3CC3)c2)n1` [Example D-279, 3-[(1-cyclopropyl-1H-pyrazol-4-yl)amino]-5-[(2R,3R)-3-(4-cyclopropylbenzamido)-2-methylpiperidin-1-yl]pyrazine-2-carboxamide], the IC50 in assay [1] and in assay [2] was at most 0.01 µM in each case.

As for `C[C@@H]1[C@H](NC(=O)c2ccc(C3CC3)cn2)CCCN1c1cnc(C(N)=O)c(Nc2ccc(OC3CCN(C)CC3)cc2)n1` [Example D-297, 5-[(2R,3R)-3-(5-cyclopropylpyridine-2-amido)-2-methylpiperidin-1-yl]-3-({4-[(1-methylpiperidin-4-yl)oxy]phenyl}amino)pyrazine-2-carboxamide], the IC50 in assay [1] and in assay [2] was at most 0.01 µM each time.

Take `C[C@@H]1[C@H](NC(=O)c2ccc(C(C)(O)CO)cc2)CCCN1c1cnc(C(N)=O)c(Nc2cnn(C)c2)n1` (single isomer, unassigned) [Example D-265]: the IC50 in assay [1] and in assay [2] was at most 0.01 µM each time.

As to `COCCN(C)Cc1cc(Nc2nc(N3CCC[C@@H](NC(=O)c4ccc(C5CC5)cc4)[C@H]3C)cnc2C(N)=O)sn1` [Example D-269, 5-[(2R,3R)-3-(4-cyclopropylbenzamido)-2-methylpiperidin-1-yl]-3-[(3-{[(2-methoxyethyl)(methyl)amino]methyl}-1,2-thiazol-5-yl)amino]pyrazine-2-carboxamide], the IC50 in assay [1] was at most 0.01 µM; in assay [2], 0.1 to 1 µM.

Consider `C[C@@H]1[C@H](NC(=O)c2ccc(C(C)(C)O)cc2F)CCCN1c1nnc(C(N)=O)c(Nc2cnn(C)c2)n1` [Example D-308, 3-[(2R,3R)-3-[2-fluoro-4-(2-hydroxypropan-2-yl)benzamido]-2-methylpiperidin-1-yl]-5-[(1-methyl-1H-pyrazol-4-yl)amino]-1,2,4-triazine-6-carboxamide], for which the IC50 in assay [1] and in assay [2] was at most 0.01 µM throughout.

For `C[C@@H]1[C@H](NC(=O)N(C)C2CC2)CCCN1c1cnc(C(N)=O)c(Nc2cnn(C)c2)n1` [Example D-314, 5-[(2R,3R)-3-{[cyclopropyl(methyl)carbamoyl]amino}-2-methylpiperidin-1-yl]-3-[(1-methyl-1H-pyrazol-4-yl)amino]pyrazine-2-carboxamide], the IC50 in assay [1] is at most 0.01 µM; in assay [2], 0.01 to 0.1 µM.

`COCCN(C)c1ccc(C(=O)N[C@@H]2CCCN(c3cnc(C(N)=O)c(Nc4cnn(C)c4)n3)[C@@H]2C)cc1` [Example D-248, 5-[(2R,3R)-3-{4-[(2-methoxyethyl)(methyl)amino]benzamido}-2-methylpiperidin-1-yl]-3-[(1-methyl-1H-pyrazol-4-yl)amino]pyrazine-2-carboxamide]: the half-inhibitory concentration (IC50) in assay [1] and in assay [2] was at most 0.01 µM each time.

In the case of `C[C@@H]1[C@H](NC(=O)c2ccc(C3CC3)cc2)CCCN1c1cnc(C(N)=O)c(Nc2cc(C3CCOCC3)ns2)n1` [Example D-310, 5-[(2R,3R)-3-(4-cyclopropylbenzamido)-2-methylpiperidin-1-yl]-3-{[3-(oxan-4-yl)-1,2-thiazol-5-yl]amino}pyrazine-2-carboxamide], the IC50 in assay [1] and in assay [2] was at most 0.01 µM in each case.

Regarding `CC(=O)N1CCC(c2ccc(Nc3nc(N4CCC[C@@H](NC(=O)c5ccc(C6CC6)cc5)[C@H]4C)cnc3C(N)=O)cc2)CC1` [Example D-296, 3-{[4-(1-acetylpiperidin-4-yl)phenyl]amino}-5-[(2R,3R)-3-(4-cyclopropylbenzamido)-2-methylpiperidin-1-yl]pyrazine-2-carboxamide], the figures for the IC50 in assay [1] and in assay [2] were at most 0.01 µM and 0.01 to 0.1 µM, respectively.

For `C[C@@H]1[C@H](NC(=O)c2ccc(C(C)(O)CO)cc2)CCCN1c1cnc(C(N)=O)c(Nc2cnn(C)c2)n1` (single isomer, unassigned) [Example D-256], the IC50 in assay [1] and in assay [2] was at most 0.01 µM in each case.

In the case of `C[C@@H]1[C@H](NC(=O)c2ccc(C3CC3)cc2)CCCN1c1cnc(C(N)=O)c(Nc2ccc3c(c2)OC(F)(F)O3)n1` [Example D-315, 5-[(2R,3R)-3-(4-cyclopropylbenzamido)-2-methylpiperidin-1-yl]-3-[(2,2-difluoro-2H-1,3-benzodioxol-5-yl)amino]pyrazine-2-carboxamide], the IC50 in assay [1] and in assay [2] was 1 to 10 µM in each case.

Turning to `C[C@@H]1[C@H](NC(=O)c2ccc(C3CC3)cc2)CCCN1c1cnc(C(N)=O)c(Nc2cn[nH]c2)n1` [Example D-282, 5-[(2R,3R)-3-(4-cyclopropylbenzamido)-2-methylpiperidin-1-yl]-3-[(1H-pyrazol-4-yl)amino]pyrazine-2-carboxamide], the IC50 in assay [1] is at most 0.01 µM; in assay [2], 0.01 to 0.1 µM.

As to `COCCn1cc(Nc2nc(N3CCC[C@@H](NC(=O)c4ccc(C5CC5)cc4)[C@H]3C)cnc2C(N)=O)cn1` [Example D-270, 5-[(2R,3R)-3-(4-cyclopropylbenzamido)-2-methylpiperidin-1-yl]-3-{[1-(2-methoxyethyl)-1H-pyrazol-4-yl]amino}pyrazine-2-carboxamide], the IC50 in assay [1] was at most 0.01 µM; in assay [2], 0.1 to 1 µM.

For `C[C@@H]1[C@H](NC(=O)c2ccc3nn(C)cc3c2)CCCN1c1cnc(C(N)=O)c(Nc2cnn(C)c2)n1` [Example D-267, N-[(2R,3R)-1-{5-carbamoyl-6-[(1-methyl-1H-pyrazol-4-yl)amino]pyrazin-2-yl}-2-methylpiperidin-3-yl]-2-methyl-2H-indazole-5-carboxamide], the IC50 in assay [1] and in assay [2] was at most 0.01 µM throughout.

With `C[C@@H]1[C@H](NC(=O)c2ccc(C3CC3)cc2)CCCN1c1cnc(C(N)=O)c(Nc2cc(C3CCN(C4CCCC4)CC3)ns2)n1` [Example D-311, 3-{[3-(1-cyclopentylpiperidin-4-yl)-1,2-thiazol-5-yl]amino}-5-[(2R,3R)-3-(4-cyclopropylbenzamido)-2-methylpiperidin-1-yl]pyrazine-2-carboxamide], the 50% inhibitory concentration (IC50) is at most 0.01 µM in assay [1] and 0.01 to 0.1 µM in assay [2].

Regarding `C[C@@H]1[C@H](NC(=O)c2ccc(C3CC3)cc2)CCCN1c1cnc(C(N)=O)c(NCC2=CCN(C)CC2)n1` [Example D-300, 5-[(2R,3R)-3-(4-cyclopropylbenzamido)-2-methylpiperidin-1-yl]-3-{[(1-methyl-1,2,3,6-tetrahydropyridin-4-yl)methyl]amino}pyrazine-2-carboxamide], the IC50 in assay [1] and in assay [2] was above 10 µM throughout.
